According to PubChem BioAssay (NCI):
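1) Cells in 96-well plates. 2) Compound, 48 h, 5 concentrations. 3) Linear interpolation between surrounding doses. 4) Unreached endpoint = highest concentration. TGI: concentration producing complete growth inhibition.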

Columns and labels:
Experiment in all cases: inhibition of tumour cell growth, NCI panel, 48 h
[1] = tested on: LOX IMVI melanoma
[2] = tested on: RPMI-8226 leukemia
[3] = tested on: A549 NSCLC
[4] = tested on: SK-MEL-5 melanoma
[5] = tested on: MCF7 breast
[6] = tested on: SF-539 CNS
[7] = tested on: SK-OV-3 ovarian
[8] = tested on: EKVX NSCLC
[9] = tested on: MDA-MB-231 breast
[10] = tested on: SNB-75 CNS
[11] = tested on: M14 melanoma
[12] = tested on: IGROV1 ovarian
[13] = tested on: RXF 393 renal
[14] = tested on: HOP-62 NSCLC
[15] = tested on: HS 578T breast
[16] = tested on: PC-3 prostate
[17] = tested on: T-47D breast
[18] = tested on: MDA-N
[19] = tested on: NCI-H522 lung

| SMILES | TGI [1] [µM] | TGI [2] [µM] | TGI [3] [µM] | TGI [4] [µM] | TGI [5] [µM] | TGI [6] [µM] | TGI [7] [µM] | TGI [8] [µM] | TGI [9] [µM] | TGI [10] [µM] | TGI [11] [µM] | TGI [12] [µM] | TGI [13] [µM] | TGI [14] [µM] | TGI [15] [µM] | TGI [16] [µM] | TGI [17] [µM] | TGI [18] [µM] | TGI [19] [µM] |
| --- | --- | --- | --- | --- | --- | --- | --- | --- | --- | --- | --- | --- | --- | --- | --- | --- | --- | --- | --- |
| O=S(Cc1ccccc1)c1ccccc1Cn1cccc1 (centres undefined) | > 100 | > 100 | > 100 | > 100 | > 100 | > 100 | > 100 | > 100 | > 100 | > 100 | > 100 | > 100 | > 100 | > 100 | > 100 | > 100 | > 100 | – | – |
| Cn1c(-c2ccccc2)cc(-c2ccc3c(c2)OCO3)c1-c1ccsc1 | > 100 | > 100 | > 100 | > 100 | > 100 | > 100 | > 100 | > 100 | > 100 | > 100 | > 100 | – | > 100 | > 100 | > 100 | > 100 | > 100 | > 100 | – |
| CSc1nc(-c2ccccc2)[nH]c(=O)n1 | – | > 100 | > 100 | > 100 | > 100 | > 100 | > 100 | > 100 | > 100 | – | > 100 | > 100 | > 100 | > 100 | > 100 | > 100 | > 100 | – | > 100 |
| CCOC(=O)C1CCCc2sc(N)c(C#N)c21 (centres undefined) | – | > 100 | > 100 | > 100 | > 100 | – | – | > 100 | > 100 | > 100 | > 100 | > 100 | > 100 | > 100 | > 100 | > 100 | > 100 | > 100 | – |
| CC1(C)CN(CC(=O)O)CC(Cc2ccc(OCC(=O)O)cc2)N(CC(=O)O)CC(C)(C)SS1 (centres undefined) | > 100 | > 100 | > 100 | > 100 | > 100 | > 100 | > 100 | > 100 | > 100 | > 100 | > 100 | > 100 | > 100 | > 100 | > 100 | > 100 | – | > 100 | > 100 |
| Nc1ccc(Oc2ccc(C34CC5CC(C3)CC(c3ccc(Oc6ccc(N)cc6C(F)(F)F)cc3)(C5)C4)cc2)c(C(F)(F)F)c1 | 31.8 | – | 49 | 39.9 | 33.8 | – | 35.4 | 30.9 | 31.5 | – | 33.4 | 37.9 | 25.1 | 44.9 | 42.6 | 29.2 | 64.5 | > 100 | 30.3 |
| CC(=O)C1C(=O)C(=O)N(c2ccc([N+](=O)[O-])cc2[N+](=O)[O-])C1=O (centres undefined) | > 100 | – | > 100 | > 100 | > 100 | > 100 | > 100 | > 100 | > 100 | > 100 | > 100 | > 100 | > 100 | > 100 | > 100 | > 100 | – | – | > 100 |
| O=C1NC(=O)C(CCC(=O)c2cccc3ccccc23)C(=O)N1 | > 100 | > 100 | > 100 | > 100 | > 100 | > 100 | > 100 | – | > 100 | > 100 | > 100 | – | > 100 | – | > 100 | > 100 | > 100 | > 100 | – |
| COc1cc(C2c3cc4c(cc3OC(NNC(N)=S)C2C)OCO4)cc(OC)c1OC (centres undefined) | > 100 | 0.847 | > 100 | – | > 100 | 0.523 | > 100 | > 100 | 8.68 | > 100 | > 51.9 | > 100 | – | > 100 | > 100 | – | > 31.6 | > 100 | 1.24 |
| COc1ccc2c(=O)c3ccoc3[nH]c2c1 | > 100 | > 100 | – | > 100 | > 100 | > 100 | > 100 | > 100 | > 100 | > 100 | > 100 | > 100 | > 100 | > 100 | > 100 | > 100 | > 100 | – | – |
| Cc1[nH]c2ncn3[nH]c(=S)nc3c2c1Cc1ccccc1 | – | – | > 100 | > 100 | > 100 | > 100 | > 100 | > 100 | > 100 | > 100 | > 100 | > 100 | > 100 | > 100 | > 100 | > 100 | > 100 | – | > 100 |
| CC(=O)NC1=NC(=O)/C(=C/c2ccccc2Cl)N1C | > 100 | – | > 100 | > 100 | > 100 | > 100 | > 100 | > 100 | > 100 | > 100 | > 100 | > 100 | > 100 | > 100 | > 100 | > 100 | – | > 100 | > 100 |
| CCOC(=O)c1cc(=O)c2cccc3c2n1CCS3 | > 100 | – | > 100 | > 100 | > 100 | > 100 | > 100 | > 100 | > 100 | > 100 | > 100 | > 100 | – | > 100 | > 100 | > 100 | > 100 | > 100 | > 100 |
| N#CC(O)CCOCc1ccccc1 (centres undefined) | > 100 | > 100 | > 100 | > 100 | > 100 | > 100 | > 100 | > 100 | > 100 | – | > 100 | > 100 | – | > 100 | – | > 100 | > 100 | > 100 | 51.4 |
| COc1c(Sc2c(SCSc3cnc4ccccc4c3Sc3cnc4ccccc4c3OC)cnc3ccccc23)cnc2ccccc12 | > 100 | > 100 | > 100 | > 100 | – | > 100 | – | > 100 | > 100 | > 100 | > 100 | > 100 | – | > 100 | > 100 | > 100 | > 100 | > 100 | > 100 |
| CCN(CC)CCCNc1ccc([N+](=O)[O-])c2nc3ccccc3c(N)c12 | 2.14 | 8.35 | 2.11 | 1.53 | 2.24 | 1.88 | 3.4 | 2.86 | 2.09 | 2.42 | 2.43 | 2.6 | 1.52 | > 10 | 1.91 | 2.25 | – | – | – |
| Cc1ccc(S(=O)(=O)C2=Cc3ccccc3C2(O)c2ccccc2)cc1 (centres undefined) | 34.2 | 44.7 | > 100 | 31.2 | – | 47.5 | 79.2 | 76 | 33.3 | > 100 | 31 | > 100 | – | > 10 | 81.9 | 92.6 | > 100 | 48.2 | 65 |
| Cc1ccc(S(=O)(=O)N(CCN)c2cc3c4c(c2)Oc2cccc5c2C4c2c(cccc2O3)O5)cc1 | 73.4 | > 100 | > 100 | 45.5 | 47.8 | 50 | > 100 | 29 | 40.9 | 25.1 | 66.6 | 23.7 | – | 28.7 | 38.2 | 35.7 | – | 67.6 | – |
| COc1cccc([C@@H]2C/C(=N\NC(=O)C(=O)N[C@@H](C)c3ccccc3)c3ccccc3N2)c1 | > 100 | > 100 | > 100 | > 100 | > 100 | 30.4 | > 100 | > 100 | > 100 | > 100 | > 100 | – | > 100 | > 100 | > 100 | > 100 | > 100 | > 100 | – |
| Oc1ccc(Br)cc1C=Nc1c(NC2CCCCC2)oc2ccc(Br)cc12 | 38.7 | > 100 | > 100 | > 100 | 83.2 | > 100 | > 100 | > 100 | > 100 | 79.5 | – | > 100 | 27.1 | > 100 | – | – | > 100 | > 100 | – |
| CC(NNC(=O)c1ccncc1)c1ccccc1 (centres undefined) | > 100 | > 100 | > 100 | > 100 | > 100 | > 100 | > 100 | > 100 | > 100 | > 100 | > 100 | > 100 | > 100 | > 100 | > 100 | > 100 | > 100 | > 100 | – |
| CCOC(=O)c1c(NC(=S)Nc2ccccc2)sc2c1CCN(C)C2 | – | > 100 | > 100 | > 100 | > 100 | > 100 | – | > 100 | > 100 | – | > 100 | > 100 | > 100 | > 100 | > 100 | > 100 | > 100 | > 100 | – |
| NC(=O)c1ncn(C2C=CC(CP(=O)(O)O)C2)c1N (centres undefined) | > 100 | > 100 | > 100 | > 100 | > 100 | > 100 | > 100 | > 100 | > 100 | > 100 | > 100 | > 100 | > 100 | > 100 | > 100 | > 100 | > 100 | > 100 | – |
| O=C(O)CCC(NC(=O)c1ccc(Oc2nc3ccccc3nc2C(=O)O)cc1)C(=O)O (centres undefined) | > 100 | > 100 | > 100 | > 100 | – | – | > 100 | > 100 | > 100 | > 100 | > 100 | > 100 | > 100 | > 100 | > 100 | > 100 | > 100 | – | > 100 |
| CC(C)CC(=O)CC(C)[C@]1(CCCOCc2ccccc2)C(=O)N2CCC3(C[C@@]24CCC[C@H]41)OCCO3 (some centres undefined) | – | > 10 | – | > 10 | > 10 | > 10 | > 10 | > 10 | > 10 | – | > 10 | > 10 | – | > 10 | – | > 10 | – | > 10 | > 10 |
| COc1cc(/C=C2\CCC(C)C3=C2N=c2s/c(=C/c4ccc(Cl)cc4)c(=O)n2C3c2cc(OC)c(OC)c(OC)c2)cc(OC)c1OC (centres undefined) | > 100 | > 100 | > 100 | > 100 | > 100 | – | > 100 | > 100 | > 100 | > 100 | > 100 | > 100 | > 100 | > 100 | > 100 | > 100 | – | > 100 | – |
| O=C(NC(CS)C(=O)O)c1c2ccccc2nc2ccccc12 (centres undefined) | > 100 | > 100 | > 100 | 12.8 | > 100 | > 100 | > 100 | > 100 | > 100 | > 100 | > 100 | > 100 | – | > 100 | – | > 100 | – | > 100 | > 100 |
| Nc1nc(Cl)c(N)c(NCC2(CO)CCC(OCc3ccccc3)C2)n1 (centres undefined) | > 100 | – | > 100 | > 100 | > 100 | > 100 | > 100 | > 100 | > 100 | > 100 | – | > 100 | > 100 | > 100 | > 100 | > 100 | > 100 | > 100 | > 100 |
